In ChEMBL document CHEMBL5321290, “Discovery of the Diphenyl 6-Oxo-1,6-dihydropyridazine-3-carboxylate/carboxamide Analogue J27 for the Treatment of Acute Lung Injury and Sepsis by Targeting JNK2 and Inhibiting the JNK2-NF-κB/MAPK Pathway” (J Med Chem, 2023):
Calls of active or inactive are those of the source. The calls are words filed in the database; no cut-off is given here.

Key:
[1] = Cmax in Sprague-Dawley rat at 10 mg/kg, po measured upto 24 hrs by UPLC-MS/MS analysis; assay type: ADME, organism-based; parameters: time < 24 hrs, dose 10 mg/kg, route po; conditions: in vivo
Mus musculus [2] = experiment: Antiinflammatory activity against LPS-induced acute lung injury C57 mouse model assessed as reduction in LPS-induced p-p65 level in lung tissue at 40 mg/kg, po thrice at 12 hrs interval followed 30 mins treated with LPS by Western blot analysis; assay type: functional, organism-based; conditions: time 36.5 hrs
Mus musculus [3] = experiment: Antiinflammatory activity against LPS-induced acute lung injury C57 mouse model assessed as increase in IkappaBalpha level in lung tissue at 40 mg/kg, po thrice at 12 hrs interval followed 30 mins treated with LPS by Western blot analysis; assay type: functional, organism-based; conditions: time 36.5 hrs
[4] = molecular target: Mitogen-activated protein kinase 9 (Homo sapiens, UniProt P45984); experiment: Inhibition of JNK2 (unknown origin) assessed as inhibition rate at 10 uM by SPR analysis relative to control
[5] = molecular target: Mitogen-activated protein kinase 8 (Mus musculus) (UniProt Q91Y86); experiment: Binding affinity to JNK1 in protein lysate of LPS-stimulated mouse J774A.1 cells assessed as protein degradation in presence of pronase at 10 to 40 uM measured after overnight incubation by immunoblotting based drug affinity responsive target stability (DARTS) assay; assay type: subcellular; conditions: J774.1, dose 10-40 µM
[6] = Subacute toxicity in ICR mouse assessed as pathological change in heart at 500 to 100 mg/kg, IG measured for 10 days by hematoxylin and eosin dye based light microscopy; assay type: organism-based; conditions: in vivo, po, 240 h, dose 500-100 mg/kg, time 10 day
Mus musculus [7] = experiment: Antiinflammatory activity against LPS-induced acute lung injury C57 mouse model assessed as decrease in LPS-induced IL-6level in blood at 20 mg/kg, po thrice at 12 hrs interval; assay type: functional, organism-based
[8] = Oral bioavailability n Sprague-Dawley rat at 10 mg/kg measured upto 24 hrs by UPLC-MS/MS analysis; assay type: ADME, organism-based; conditions: in vivo
[9] = molecular target: c-Jun N-terminal kinase (Mus musculus) (UniProt Q91Y86+Q9WTU6+Q61831); experiment: Inhibition of JNK phosphorylation in mouse J774A.1 cells assessed as decrease in LPS-stimulated JNK phosphorylation level pretreated at 10 uM for 1 hrs followed by induced with LPS for 40 mins by Western blot analysis; assay type: cell-based; conditions: J774.1, time 100.0 min
Mus musculus [10] = experiment: Antiinflammatory activity against LPS-induced septic shock mouse model assessed as improvement in survival at 20 mg/kg, po pretreated 1 hr before LPS administration measured upto 96 hrs; assay type: functional, organism-based; conditions: time <= 97.0 hrs
[11] = Half life in Sprague-Dawley rat at 10 mg/kg, iv measured upto 24 hrs by UPLC-MS/MS analysis; assay type: ADME, organism-based; conditions: in vivo
Mus musculus [12] = experiment: Antiinflammatory activity against LPS-induced acute lung injury C57 mouse model assessed as decrease in LPS-induced total cell count in broncho alveolar lavage fluid at 20 mg/kg, po thrice at 12 hrs interval; assay type: functional, organism-based; conditions: Bronchoalveolar lavage
Mus musculus [13] = experiment: Antiinflammatory activity against LPS-induced acute lung injury C57 mouse model assessed as reduction in LPS-induced neutrophil numbers in alveolar lavage fluid at 20 to 40 mg/kg, po thrice at 12 hrs interval followed 30 mins treated with LPS; assay type: functional, organism-based; conditions: dose 20-40 mg/kg, time 36.5 hrs
[14] = molecular target: Transcription factor p65 (Mus musculus) (UniProt Q04207); experiment: Inhibition of P65 phosphorylation in mouse J774A.1 cells pretreated at 10 uM for 2 hrs followed by induced with LPS for 30 mins by Western blot analysis; assay type: cell-based; conditions: J774.1, time 2.5 hrs
THP-1 [15] = experiment: Antiinflammatory activity against human THP-1 cells assessed as inhibition of LPS-stimulated TNFalpha release measured after 30 mins by ELISA; assay type: functional; conditions: 0.5 h
[16] = molecular target: Mitogen-activated protein kinase 9 (Mus musculus) (UniProt Q9WTU6); experiment: Binding affinity to JNK2 in protein lysate of LPS-stimulated mouse J774A.1 cells assessed as protein degradation in presence of pronase at 10 to 40 uM measured after overnight incubation by immunoblotting based drug affinity responsive target stability (DARTS) assay; assay type: subcellular; conditions: J774.1, dose 10-40 µM
[17] = molecular target: Transcription factor p65 (Mus musculus) (UniProt Q04207); experiment: Inhibition of P65 entry into nucleus in mouse J774A.1 cells assessed as density quantification pretreated at 10 uM for 2 hrs followed by induced with LPS for 30 mins by immunofluorescence analysis; assay type: cell-based; conditions: J774.1, time 2.5 hrs
J774.A1 [18] = experiment: Antiinflammatory activity against mouse J774A.1 cells assessed as inhibition of LPS-stimulated IL6 mRNA expression pretreated for 2 hrs followed by stimulated with LPS by RT-qPCR analysis; assay type: functional, cell-based; conditions: dose 2.5-10 µM
[19] = molecular target: Mitogen-activated protein kinase 10 (Mus musculus) (UniProt Q61831); experiment: Binding affinity to JNK3 in protein lysate of LPS-stimulated mouse J774A.1 cells assessed as protein degradation in presence of pronase at 10 to 40 uM measured after overnight incubation by immunoblotting based drug affinity responsive target stability (DARTS) assay; assay type: subcellular; conditions: J774.1, dose 10-40 µM
[20] = Subacute toxicity in ICR mouse assessed as pathological change in liver at 500 to 100 mg/kg, IG measured for 10 days by hematoxylin and eosin dye based light microscopy; assay type: organism-based; conditions: in vivo, po, 240 h, dose 500-100 mg/kg, time 10 day
Mus musculus [21] = experiment: Antiinflammatory activity against LPS-induced septic shock mouse model assessed as improvement in LPS-induced weight loss at 20 mg/kg, po pretreated 1 hr before LPS administration measured upto 120 hrs; assay type: functional, organism-based; conditions: time <= 121.0 hrs
J774.A1 [22] = experiment: Antiinflammatory activity against mouse J774A.1 cells assessed as inhibition of LPS-stimulated IL6 release measured at 10 uM after 30 mins by ELISA relative to control; assay type: functional; conditions: J774.A1, 0.5 h
Mus musculus [23] = experiment: Antiinflammatory activity against LPS-induced acute lung injury C57 mouse model assessed as decrease in LPS-induced protein concentration in broncho alveolar lavage fluid at 20 mg/kg, po thrice at 12 hrs interval; assay type: functional, organism-based; conditions: Bronchoalveolar lavage
Mus musculus [24] = experiment: Antiinflammatory activity against LPS-induced acute lung injury C57 mouse model assessed as decrease in LPS-induced IL-6 level in blood at 20 mg/kg, po thrice at 12 hrs interval; assay type: functional, organism-based
J774.A1 [25] = experiment: Antiinflammatory activity against mouse J774A.1 cells assessed as inhibition of LPS-stimulated TNFalpha release measured at 10 uM after 30 mins by ELISA relative to control; assay type: functional; conditions: J774.A1, 0.5 h
Mus musculus [26] = experiment: Antiinflammatory activity against LPS-induced acute lung injury C57 mouse model assessed as improvement in alveolar structure at 20 mg/kg, po thrice at 12 hrs interval by hematoxylin and eosin dye based light microscopy; assay type: functional, organism-based; conditions: time 36.0 hrs
Mus musculus [27] = experiment: Antiinflammatory activity against LPS-induced acute lung injury C57 mouse model assessed as decrease in LPS-induced IL-6 level in alveolar lavage fluid at 20 mg/kg, po thrice at 12 hrs interval; assay type: functional, organism-based; conditions: Bronchoalveolar lavage
Mus musculus [28] = experiment: Antiinflammatory activity against LPS-induced acute lung injury C57 mouse model assessed as decrease in LPS-induced neutrophile count in broncho alveolar lavage fluid at 20 mg/kg, po thrice at 12 hrs interval; assay type: functional, organism-based; conditions: Bronchoalveolar lavage
THP-1 [29] = experiment: Antiinflammatory activity against human THP-1 cells assessed as inhibition of LPS-stimulated TNFalpha mRNA expression pretreated for 2 hrs followed by stimulated with LPS by RT-qPCR analysis; assay type: functional, cell-based; conditions: dose 2.5-10 µM
[30] = Subacute toxicity in ICR mouse assessed as change in body weight at 500 to 100 mg/kg, IG measured for 10 days; assay type: organism-based; conditions: in vivo, po, 240 h, dose 500-100 mg/kg, time 10 day

Sequence of Transcription factor p65 (Mus musculus) (Q04207 whole entry): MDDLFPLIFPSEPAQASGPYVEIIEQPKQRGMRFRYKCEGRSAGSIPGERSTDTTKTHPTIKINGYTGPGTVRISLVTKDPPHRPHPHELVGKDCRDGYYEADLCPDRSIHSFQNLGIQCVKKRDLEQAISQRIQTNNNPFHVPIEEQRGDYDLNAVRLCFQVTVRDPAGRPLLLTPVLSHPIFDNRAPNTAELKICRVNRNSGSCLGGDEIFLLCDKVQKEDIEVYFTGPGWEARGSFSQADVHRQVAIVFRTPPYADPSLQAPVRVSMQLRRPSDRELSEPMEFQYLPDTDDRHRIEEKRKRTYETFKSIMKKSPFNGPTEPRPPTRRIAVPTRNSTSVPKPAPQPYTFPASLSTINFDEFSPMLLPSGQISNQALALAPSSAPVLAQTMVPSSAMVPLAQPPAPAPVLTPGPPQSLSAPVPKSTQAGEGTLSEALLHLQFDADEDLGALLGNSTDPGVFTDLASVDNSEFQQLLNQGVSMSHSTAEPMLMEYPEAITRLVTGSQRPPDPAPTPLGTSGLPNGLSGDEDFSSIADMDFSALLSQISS
Sequence of Mitogen-activated protein kinase 8 (Mus musculus) (Q91Y86 whole entry): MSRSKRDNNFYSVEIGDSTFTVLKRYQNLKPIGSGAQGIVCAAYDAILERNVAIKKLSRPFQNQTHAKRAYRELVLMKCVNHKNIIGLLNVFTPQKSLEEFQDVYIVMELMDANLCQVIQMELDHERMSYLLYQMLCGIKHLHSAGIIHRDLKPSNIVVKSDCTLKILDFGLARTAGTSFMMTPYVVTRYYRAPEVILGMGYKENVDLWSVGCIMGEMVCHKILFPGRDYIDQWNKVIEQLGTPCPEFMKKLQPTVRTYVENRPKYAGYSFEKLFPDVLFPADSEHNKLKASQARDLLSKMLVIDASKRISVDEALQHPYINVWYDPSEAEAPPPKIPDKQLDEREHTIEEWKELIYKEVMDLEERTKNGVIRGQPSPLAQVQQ
Sequence of Mitogen-activated protein kinase 9 (P45984 whole entry, looked up): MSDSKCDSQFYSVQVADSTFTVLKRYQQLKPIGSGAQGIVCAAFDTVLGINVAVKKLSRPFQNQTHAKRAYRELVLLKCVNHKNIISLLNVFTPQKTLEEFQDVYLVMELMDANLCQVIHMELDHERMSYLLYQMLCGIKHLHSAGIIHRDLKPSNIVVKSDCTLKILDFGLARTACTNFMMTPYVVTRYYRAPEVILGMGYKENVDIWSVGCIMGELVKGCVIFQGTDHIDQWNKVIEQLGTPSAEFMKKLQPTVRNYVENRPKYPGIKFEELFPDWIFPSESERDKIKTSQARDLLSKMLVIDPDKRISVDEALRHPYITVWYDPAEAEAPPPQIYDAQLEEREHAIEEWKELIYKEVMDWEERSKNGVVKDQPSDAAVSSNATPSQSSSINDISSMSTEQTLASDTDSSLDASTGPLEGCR
Sequence of Mitogen-activated protein kinase 9 (Mus musculus) (Q9WTU6 whole entry): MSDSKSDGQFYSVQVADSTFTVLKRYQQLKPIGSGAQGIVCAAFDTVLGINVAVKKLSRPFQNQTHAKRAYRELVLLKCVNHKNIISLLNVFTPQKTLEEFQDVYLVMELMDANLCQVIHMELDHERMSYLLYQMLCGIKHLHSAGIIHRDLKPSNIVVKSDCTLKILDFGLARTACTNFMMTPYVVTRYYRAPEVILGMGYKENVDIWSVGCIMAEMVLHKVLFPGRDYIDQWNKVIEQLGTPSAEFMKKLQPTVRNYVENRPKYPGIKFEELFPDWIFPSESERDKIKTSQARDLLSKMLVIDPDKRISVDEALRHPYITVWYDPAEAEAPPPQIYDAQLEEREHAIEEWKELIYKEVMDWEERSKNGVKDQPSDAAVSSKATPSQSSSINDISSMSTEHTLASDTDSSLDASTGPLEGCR
Sequence of c-Jun N-terminal kinase (Mus musculus) (Q61831 whole entry, looked up): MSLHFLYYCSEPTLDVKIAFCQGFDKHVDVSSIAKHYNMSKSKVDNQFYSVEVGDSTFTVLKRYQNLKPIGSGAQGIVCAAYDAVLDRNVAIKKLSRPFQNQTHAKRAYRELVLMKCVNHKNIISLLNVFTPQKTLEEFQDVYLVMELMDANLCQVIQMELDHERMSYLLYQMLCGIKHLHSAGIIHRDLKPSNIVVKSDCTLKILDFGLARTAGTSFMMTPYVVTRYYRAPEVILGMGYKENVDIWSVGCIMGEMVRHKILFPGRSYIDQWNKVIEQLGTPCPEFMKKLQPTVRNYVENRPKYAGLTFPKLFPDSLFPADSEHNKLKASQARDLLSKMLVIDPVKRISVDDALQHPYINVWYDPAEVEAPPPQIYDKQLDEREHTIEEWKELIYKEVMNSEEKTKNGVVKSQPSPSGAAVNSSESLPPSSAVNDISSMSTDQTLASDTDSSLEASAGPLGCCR
Sequence of c-Jun N-terminal kinase (Mus musculus) (Q91Y86 whole entry, looked up): as the sequence (Q91Y86 whole entry) above
Sequence of c-Jun N-terminal kinase (Mus musculus) (Q9WTU6 whole entry, looked up): as the sequence (Q9WTU6 whole entry) above
Sequence of Mitogen-activated protein kinase 10 (Mus musculus) (Q61831 whole entry): as the sequence (Q61831 whole entry, looked up) above

Compound: COc1cc2nccc(Oc3ccc(NC(=O)c4nn(-c5ccc(C)cc5)c(=O)cc4C)cc3)c2cc1OC
- Cmax [1]: 1870 ng/mL
- Activity (Mus musculus [2]): Active
- Activity (Mus musculus [3]): Active
- inhibition [4]: 64.8%
- Activity [5]: inactive
- Activity [6]: Non-Toxic
- Activity (Mus musculus [7]): Active
- F [8]: 30.74%
- inhibition [9]: Active
- Activity (Mus musculus [10]): Active
- half-life [11]: 68.9 min
- Activity (Mus musculus [12]): inactive
- Activity (Mus musculus [13]): Active
- inhibition [14]: Active
- IC50 (THP-1 [15]): 1.76 µM
- Activity [16]: inactive
- inhibition [17]: Active
- Activity (J774.A1 [18]): Dose-Dependent Effect
- Activity [19]: inactive
- Activity [20]: Non-Toxic
- Activity (Mus musculus [21]): Active
- inhibition at 10 µM (J774.A1 [22]): 71.5%
- Activity (Mus musculus [23]): inactive
- Activity (Mus musculus [24]): Active
- inhibition at 10 µM (J774.A1 [25]): 56.8%
- Activity (Mus musculus [26]): inactive
- Activity (Mus musculus [27]): Active
- Activity (Mus musculus [28]): inactive
- Activity (THP-1 [29]): Dose-Dependent Effect
- Activity [30]: Non-Toxic
